Assay results reported in patent US11078194B2, “Salt form and crystal form serving as FGFR and VEGFR inhibitor compounds, and preparation method therefor” (HARBIN ZHENBAO PHARMACEUTICAL CO., LTD., priority 2017, dated 2021).
Where two headings read alike, the source gives them in different places.

Assays:
[1] = Solubility test of compounds of formula (I)-(IV) in 4 vehicles (water, SGF, FaSSIF, FeSSIF), HPLC; format: physicochemical; settings: for solubility at 4 h / solubility at 24 h: thermodynamic from solid; for solubility at 4 h / Solubility (μg/mL)_4 hours: 4 hours stirring; for solubility at 4 h: read-out: Solubility (μg/mL)_4 hours; for solubility at 24 h / Solubility (μg/mL)_24 hours: 24 hours stirring; for solubility at 24 h: read-out: Solubility (μg/mL)_24 hours
Protocol: About 5 mg of the compound of formula (I) was weighed accurately, and placed in a sample bottle. 10 mL of acetonitrile was added. The mixture was sonicated for 5 minutes, cooled to room temperature, and well mixed. Two control sample solutions were prepared in parallel, and labeled as STD-1 and STD-2, respectively.
The control sample solution STD-1 was serially diluted 1, 5, 10, 100 and 1000 times and labeled as linear solutions L1, L2, L3, L4 and L5.
The solubility of the compound of formula (I) and its salt in 4 vehicles with different pH were tested. About 10 mg of the compounds of formula (I)-(IV) were weighed respectively, then 5.0 mL of different vehicles (water, SGF, FaSSIF, FeSSIF) were added thereto, respectively, and well mixed to obtain suspensions. Magnetic stir bars were added into the suspensions, and the suspensions were placed on a magnetic stirrer for stirring. After stirring for 2 hours, 4 hours, and 24 hours, the samples were collected and centrifuged. The residual solid samples in the lower layer were detected by XRPD. The concentrations of the samples in the upper layer were determined by HPLC, and the pH value of the samples were also detected.
(§1) FaSSIF: (1) 0.042 g of sodium hydroxide, 0.3438 g of sodium dihydrogen phosphate and 0.6186 g of sodium chloride were weighed, and 90 mL of purified water was added and well mixed. The pH value of the obtained solution were adjusted to 6.5 with 1 N hydrochloric acid or 1 N sodium hydroxide, and the solution were diluted with purified water to a final volume of 100 mL. (2) 50 mL of the above buffer solution was taken, followed by addition of 0.224 g of commercially available FaSSIF/FeSSIF/FaSSGF powder (Biorelevant.com). The buffer solution was stirred until dissolved, and diluted with purified water to a final volume of 100 mL. The buffer solution was placed at room temperature.
as §1, with “FeSSIF:” for “FaSSIF:”, “0.404” for “0.042”, “0.865” for “0.3438”, “glacial acetic acid, 1.1874” for “sodium dihydrogen phosphate and 0.6186”, “5.0” for “6.5”, “1.12” for “0.224”
FaSSGF (SGF): (1) 0.2 g of sodium chloride was added to 90 mL of purified water and mixed well. The pH value thereof was adjusted to 1.8 with 1 N hydrochloric acid and the solution diluted with purified water to a final volume of 100 mL. The obtained solution was allowed to stand at room temperature.

[2] = Solid stability test of crystal form G, crystal form I and crystal form J (HPLC content, total impurities, XRPD, appearance); format: physicochemical
Protocol: About 10 mg of crystal form G, crystal form I, or crystal form J were weighed accurately, and placed on the bottom of a 40 mL glass sample bottle and spread into a thin layer. For an open sample, the bottle mouth thereof was sealed with aluminum foil poked with pinholes to ensure that the sample can fully contact with the ambient air. For a sealed sample, the bottle mouth thereof was sealed with a bottle cap, and wrapped with a sealing film. Two duplicate samples were weighed at each time point of each condition in parallel, and an appropriate amount of sample (not weighed) was taken additionally for XRPD detection. The prepared samples were placed under each condition and were sampled and analyzed when the time point was arrived. On 0th day, 5 control samples were weighed in parallel and stored in a refrigerator at −20° C. until analysis. The samples subjected to light irradiation were prepared by the same method, and placed on the bottom of a 40 mL glass sample bottle. The glass bottle was left open and placed in the upright position in a light irradiation box. In addition, two samples in an appropriate amount were taken as samples in dark, and the glass bottles containing the same were left open, put in the upright position, and wrapped with tin foil, and irradiated with a total luminance of 1.2×10^6Lux.hr and a near ultraviolet power of 200 w.hr/m^2. After irradiation, the samples was stored in the refrigerator at −20° C. for analysis.
The compounds were placed under the following conditions and sampled at different time points to detect the physical properties, and the content and total impurities were analyzed by HPLC.

[3] = FaSSIF, pH 6.5, fassif, vehicle FaSSIF
[4] = FeSSIF, pH 5, fessif, vehicle FeSSIF
[5] = SGF (FaSSGF), pH 1.8, simulated gastric fluid, vehicle SGF
[6] = pH of sample in FaSSIF (vehicle pH 6.62)
[7] = pH of sample in FeSSIF (vehicle pH 4.59)
[8] = pH of sample in H2O (vehicle pH 8.23)
[9] = pH of sample in SGF (vehicle pH 1.57)
[10] = water, pH 8.23, water, vehicle H2O
[11] = Accelerated test (40° C./relative humidity 75%, open), 1st month
[12] = Accelerated test (40° C./relative humidity 75%, open), 2nd month
[13] = Accelerated test (40° C./relative humidity 75%, open), 3rd month
[14] = Accelerated test (40° C./relative humidity 75%, open), 10th day
[15] = Accelerated test (60° C./relative humidity 75%, open), 1st month
[16] = Accelerated test (60° C./relative humidity 75%, open), 2nd month
[17] = Accelerated test (60° C./relative humidity 75%, open), 3rd month
[18] = Accelerated test (60° C./relative humidity 75%, open), 10th day
[19] = High humidity (Room temperature/relative humidity 92.5%, open), 5th day
[20] = High humidity (Room temperature/relative humidity 92.5%, open), 10th day
[21] = High temperature (60° C., open), 5th day
[22] = High temperature (60° C., open), 10th day
[23] = Light irradiation (1.2 × 10^6 Lux·hr, near ultraviolet 200 w·hr/m^2, open), irradiated sample
[24] = Light irradiation test, Dark sample

Compound: C[C@@H](Oc1ccc2[nH]nc(/C=C(\F)c3ccc(CNC4CCOCC4)nc3)c2c1)c1c(Cl)cncc1Cl.O=C(O)C[C@H](O)C(=O)O [compound of formula (IV)]
- solubility at 4 h [1, 3]: 1130 µg/mL
- solubility at 24 h [1, 3]: 824 µg/mL
- solubility at 4 h [1, 4]: 2410 µg/mL
- solubility at 24 h [1, 4]: 2280 µg/mL
- solubility at 4 h [1, 5]: 2470 µg/mL
- solubility at 24 h [1, 5]: 43.3 µg/mL
- pH (4 hours) [1, 6]: 6.26
- pH (24 hours) [1, 6]: 6.27
- pH (4 hours) [1, 7]: 4.95
- pH (24 hours) [1, 7]: 4.95
- pH (4 hours) [1, 8]: 6.93
- pH (24 hours) [1, 8]: 6.46
- pH (4 hours) [1, 9]: 2.09
- pH (24 hours) [1, 9]: 2.09
- solubility at 4 h [1, 10]: 7.4 µg/mL
- solubility at 24 h [1, 10]: 19.3 µg/mL

Compound: C[C@@H](Oc1ccc2[nH]nc(/C=C(\F)c3ccc(CNC4CCOCC4)nc3)c2c1)c1c(Cl)cncc1Cl [compound of formula (I)]
- solubility at 4 h [1, 3]: 781 µg/mL
- solubility at 4 h [1, 4]: 1950 µg/mL
- solubility at 24 h [1, 4]: 1730 µg/mL
- solubility in the three biological vehicle ([1]; SGF, FaSSIF, FeSSIF, conclusion in words): good solubility
- pH (4 hours) [1, 6]: 6.58
- pH (24 hours) [1, 6]: 6.57
- pH (4 hours) [1, 7]: 5.01
- pH (24 hours) [1, 7]: 5.01
- pH (4 hours) [1, 8]: 8.33
- pH (24 hours) [1, 8]: 7.97
- pH (4 hours) [1, 9]: 2.10
- pH (24 hours) [1, 9]: 2.06
- Solubility (μg/mL)_24 hours ([1]; vehicle FaSSIF): 611.3 µg/mL
- Solubility (μg/mL)_4 hours ([1]; vehicle H2O): 5.8 µg/mL
- Solubility (μg/mL)_24 hours ([1]; vehicle H2O): <LOQ
- Solubility (μg/mL)_4 hours ([1]; vehicle SGF): 1971.3 µg/mL
- Solubility (μg/mL)_24 hours ([1]; vehicle SGF): 1825.6 µg/mL
- solubility in the aqueous phase / water ([1]; water, conclusion in words, listed as free base): extremely difficult to dissolve

Compound: C[C@@H](Oc1ccc2[nH]nc(/C=C(\F)c3ccc(CNC4CCOCC4)nc3)c2c1)c1c(Cl)cncc1Cl [crystal form G]
- Appearance ([2]; 0th day): Earth yellow
- Content (%) ([2]; 0th day): 100%
- Crystal form (XRPD) ([2]; 0th day): form G
- Total impurities (%) ([2]; 0th day): 0.11%
- Appearance [2, 11]: Earth yellow
- Content (%) [2, 11]: 102.45%
- Crystal form (XRPD) [2, 11]: form G
- Total impurities (%) [2, 11]: 0.16%
- Appearance [2, 12]: Earth yellow
- Content (%) [2, 12]: 101.07%
- Crystal form (XRPD) [2, 12]: form G
- Total impurities (%) [2, 12]: 0.17%
- Appearance [2, 13]: Earth yellow
- Content (%) [2, 13]: 98.81%
- Crystal form (XRPD) [2, 13]: form G
- Total impurities (%) [2, 13]: 0.18%
- Appearance [2, 14]: Earth yellow
- Content (%) [2, 14]: 99.97%
- Crystal form (XRPD) [2, 14]: form G
- Total impurities (%) [2, 14]: 0.11%
- Appearance [2, 15]: Earth yellow
- Content (%) [2, 15]: 101.51%
- Crystal form (XRPD) [2, 15]: form G
- Total impurities (%) [2, 15]: 0.17%
- Appearance [2, 16]: Earth yellow
- Content (%) [2, 16]: 99.86%
- Crystal form (XRPD) [2, 16]: form G
- Total impurities (%) [2, 16]: 0.18%
- Appearance [2, 17]: Earth yellow
- Content (%) [2, 17]: 100.21%
- Crystal form (XRPD) [2, 17]: form G
- Total impurities (%) [2, 17]: 0.19%
- Appearance [2, 18]: Earth yellow
- Content (%) [2, 18]: 98.38%
- Crystal form (XRPD) [2, 18]: form G
- Total impurities (%) [2, 18]: 0.15%
- Appearance [2, 19]: Earth yellow
- Content (%) [2, 19]: 100.82%
- Crystal form (XRPD) [2, 19]: form G
- Total impurities (%) [2, 19]: 0.11%
- Appearance [2, 20]: Earth yellow
- Content (%) [2, 20]: 98.79%
- Crystal form (XRPD) [2, 20]: form G
- Total impurities (%) [2, 20]: 0.11%
- Appearance [2, 21]: Earth yellow
- Content (%) [2, 21]: 102.02%
- Crystal form (XRPD) [2, 21]: form G
- Total impurities (%) [2, 21]: 0.16%
- Appearance [2, 22]: Earth yellow
- Content (%) [2, 22]: 100.14%
- Crystal form (XRPD) [2, 22]: form G
- Total impurities (%) [2, 22]: 0.16%
- Appearance [2, 23]: Earth yellow
- Content (%) [2, 23]: 102.93%
- Crystal form (XRPD) [2, 23]: form G
- Total impurities (%) [2, 23]: 0.37%
- Appearance [2, 24]: Earth yellow
- Content (%) [2, 24]: 101.69%
- Crystal form (XRPD) [2, 24]: form G
- Total impurities (%) [2, 24]: 0.11%
- thermal stability and stability under accelerated conditions ([2]; conclusion of influencing factors and accelerated tests): excellent
- stability under dark conditions ([2]; dark): good stability
- impurities generated under light irradiation conditions ([2]; light irradiation): slight impurities
